# Data published in paper PMC11591752, “Novel Inhibitory Actions of Neuroactive Steroid [3α,5α]-3-Hydroxypregnan-20-One on Toll-like Receptor 4-Dependent Neuroimmune Signaling” (Biomolecules, 2024).
# Target: T1, MD-2 (Homo sapiens, UniProt Q9Y6Y9)
# T1 construct: gene LY96; Recombinant human MD-2 (R&D Systems #1787-MD-050/CF), covalently immobilized
# T1 sequence (Q9Y6Y9 19-160): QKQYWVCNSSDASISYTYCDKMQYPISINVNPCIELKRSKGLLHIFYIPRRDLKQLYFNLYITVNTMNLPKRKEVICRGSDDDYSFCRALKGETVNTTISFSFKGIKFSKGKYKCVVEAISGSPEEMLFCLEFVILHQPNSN
# Assay: SPR competition assay: inhibition of Lipid A binding to immobilized hMD-2
compound,measurement,value
"CC(=O)[C@H]1CC[C@H]2[C@@H]3CC[C@H]4C[C@H](O)CC[C@]4(C)[C@H]3CC[C@]12C [3α,5α-THP, (3α,5α)-3-hydroxypregnan-20-one]",Ki,4.5 ± 1.7 nM
